Measurements published in patent publication US11339147B2, “Lactam compound as FXR receptor agonist” (CSPC ZHONGQI PHARMACEUTICAL TECHNOLOGY (SHIJIAZHUANG) CO., …, priority 2017, dated 2022).

Tested on: NASH model
Assay: In vivo efficacy test: NASH model in mice by high-fat diet feeding and CCl4 induction
Design: species or system C57/BL6 mice
Conditions: intragastric once a day for 28 days; for gene expression of collagen-alpha in the liver: FIG. 3; for total cholesterol (TC) and triglyceride (TG) levels in the liver: FIG. 2
Source text: In this test, NASH model was established on mice by two procedures of high-fat diet feeding and CCl4 induction to test the effects of compounds on treating NASH. Briefly, the modeling process includes feeding C57/BL6 mice with high-fat diet to induce obesity in mice and produce non-alcoholic fatty liver disease; selecting 40 obese mice with a body weight >35 g when >80% of mice reached 35 g or more, continuously feeding with high-fat diet while intraperitoneal injection of CCl4 twice a week for four weeks; as for 10 normal animals in the same batch, feeding intraperitoneally with olive oil as a healthy control. The day when CCl4 feeding was started was set to the 0th day, and the time when CCl4 feeding was started was set to 0th hour. On the day when CCl4 feeding was started, the intragastric administration was started, 5 mL/kg once a day for 4 weeks, namely 28 days. Test doses of the compound were 15 mg/kg, 30 mg/kg, 60 mg/kg, respectively; healthy control and vehicle control were given vehicle 1% hydroxypropyl methylcellulose (HPMC). During the whole experiment period, the animals were weighed and their health was monitored every day. If there are special circumstances, the relevant project leader should be notified in time and the corresponding records should be made. On the 28th day, after all the animals were weighed, they were euthanized after narcotizing and blood collecting, and the liver was taken. After the blood sample was processed into serum, ALT/AST/TG/TC were tested; for parts of the liver samples, liver TG and TC and the relative expression of collagen-1 alpha gene were tested, and for the other part, liver samples was taken for pathological analysis.

O=C(O)c1cnc(N2C(=O)CCc3cc(OCc4c(-c5c(Cl)cccc5Cl)noc4C4CC4)ccc32)c(Cl)c1 [Compound 37]
remarkable efficacy: single steatosis, inflammatory molecules and ballooning change (60 mg/kg, FIG. 5)
significant decrease: blood biochemical ALT/AST indicators (15 mg/kg, FIG. 1) | gene expression of collagen-alpha in the liver (15 mg/kg) | total cholesterol (TC) and triglyceride (TG) levels in the liver (30 mg/kg) | total cholesterol (TC) and triglyceride (TG) levels in the liver (60 mg/kg) | gene expression of collagen-alpha in the liver (60 mg/kg)
significant reduction: nonalcoholic fatty liver score NAFLD (overall evaluation, pathological tissue analysis) (15 mg/kg, FIG. 5) | liver fibrosis (pathological tissue analysis) (60 mg/kg, FIG. 4) | nonalcoholic fatty liver score NAFLD (overall evaluation, pathological tissue analysis) (60 mg/kg, FIG. 5)
